Assay results published in patent US20040175382A1, “Methods of using and compositions comprising selective cytokine inhibitory drugs for the treatment and management of disorders of the central nervous system” (priority 2003, published 2004).

Assays:
[1] = tested on: rat mesencephalonic neurons; settings: in the presence of the adenylate cyclase activator forskolin; cited from earlier work
[2] = tested on: CBP+/− mutant mice; settings: cited from earlier work
[3] = tested on: patients with PD; settings: cited from earlier work
[4] = cardiovascular and respiratory function in anesthetized dogs; assay type: in vivo; settings: anesthetized Beagle dogs; 400, 800 and 1,200 mg/kg/day ascending doses, infusion through the jugular vein
Procedure: The effects of 3-(3,4-dimethoxy-phenyl)-3-(1-oxo-1,3-dihydro-isoindol-2-yl)-propionamide on cardiovascular and respiratory function are investigated in anesthetized dogs. Two groups of Beagle dogs (2/sex/group) are used. One group receives three doses of vehicle only and the other receives three ascending doses of 3-(3,4-dimethoxy-phenyl)-3-(1-oxo-1,3-dihydro-isoindol-2-yl)-propionamide (400, 800, and 1,200 mg/kg/day). In all cases, doses of 3-(3,4-dimethoxy-phenyl)-3-(1-oxo-1,3-dihydro-isoindol-2-yl)-propionamide or vehicle are successively administered via infusion through the jugular vein separated by intervals of at least 30 minutes.

[5] = tested on: TNF-α production following LPS-stimulation of human PBMC and human whole blood; assay: in vitro pharmacological activity profile, comparison with thalidomide (cytokine production); assay type: cell-based
Procedure: The pharmacological properties of 3-(3,4-dimethoxy-phenyl)-3-(1-oxo-1,3-dihydro-isoindol-2-yl)-propionamide, including activity comparisons with thalidomide, are characterized in in vitro studies. Studies examine the effects of 3-(3,4-dimethoxy-phenyl)-3-(1-oxo-1,3-dihydro-isoindol-2-yl)-propionamide on the production of various cytokines. In addition, a safety pharmacology study of 3-(3,4-dimethoxy-phenyl)-3-(1-oxo-1,3-dihydro-isoindol-2-yl)-propionamide is conducted in dogs and the effects of the compound on ECG parameters are examined further as part of three repeat-dose toxicity studies in primates.
Inhibition of TNF-α production following LPS-stimulation of human PBMC and human whole blood by 3-(3,4-dimethoxy-phenyl)-3-(1-oxo-1,3-dihydro-isoindol-2-yl)-propionamide is investigated in vitro (Muller et al., Bioorg. Med. Chem. Lett. 9:1625-1630, 1999). The IC50's of 3-(3,4-dimethoxy-phenyl)-3-(1-oxo-1,3-dihydro-isoindol-2-yl)-propionamide for inhibiting production of TNF-α following LPS-stimulation of PBMC and human whole blood is measured.
The pharmacological effects of 3-(3,4-dimethoxy-phenyl)-3-(1-oxo-1,3-dihydro-isoindol-2-yl)-propionamide derive from its action as an inhibitor of cellular response to receptor-initiated trophic signals (e.g., IGF-1, VEGF, cyclooxygenase-2), and other activities.

COCCOc1cc(OCCOC)cc(-c2nc(C)cc3cc(OC)c(OC)cc23)c1 [SDZ-MNS 949]
uptake of dopamine [1]: stimulate uptake of dopamine

COc1ccc([C@H]2CNC(=O)[C@H](Cc3cccc(C)c3)C2)cc1OC1CCCC1 [HT0712]
long-term memory defects [2]: abolished the long-term memory defects

COc1ccc(C2CNC(=O)C2)cc1OC1CCCC1 (stereo not drawn) [Rolipram]
dose-limiting side effect ([3]; Phase II trials of PD): nausea | deterioration of the therapeutic action of dopamine against Lisuride ([3]; double-blind trial versus placebo, patients with PD already under treatment, 3 mg per day): no significant deterioration | long-term memory defects [2]: abolished the long-term memory defects

CCCCOc1cc(CC2CNC(=O)N2)ccc1OC (stereo not drawn) [Ro-20 1724]
uptake of dopamine [1]: stimulate uptake of dopamine

COc1ccc(C(CC(N)=O)N2Cc3ccccc3C2=O)cc1OC (stereo not drawn) [3-(3,4-dimethoxy-phenyl)-3-(1-oxo-1,3-dihydro-isoindol-2-yl)-propionamide]
cardiovascular and respiratory changes compared to the vehicle control group [4]: minimal at all doses | effect on generation of inflammatory cytokines ([5]; in vitro): suppresses the generation of inflammatory cytokines | potency relative to thalidomide (times more potent) ([5]; in vitro studies, pharmacological activity profile similar to thalidomide): 5 to 50 times
